Data taken from the NIST ThermoML archive (doi:10.1016/j.tca.2015.03.020).

Conditions: Rate of evaporation

CCn1cc[n+](C)c1.O=S(=O)([N-]S(=O)(=O)C(F)(F)F)C(F)(F)F
Liquid
Conditions | vapor or sublimation pressure [kPa]
363.13 K | 1.75e-09
368.13 K | 2.95e-09
373.13 K | 4.91e-09
378.13 K | 8.06e-09
383.13 K | 1.31e-08
388.13 K | 2.09e-08
393.13 K | 3.31e-08
398.13 K | 5.18e-08
403.13 K | 8.01e-08
408.13 K | 1.23e-07
413.13 K | 1.86e-07
418.13 K | 2.78e-07
423.13 K | 4.14e-07
428.13 K | 6.09e-07
433.13 K | 8.88e-07
438.13 K | 1.28e-06
443.13 K | 1.84e-06
448.13 K | 2.62e-06
453.13 K | 3.7e-06
458.13 K | 5.18e-06
463.13 K | 7.2e-06
468.13 K | 9.95e-06
473.13 K | 1.36e-05
538.13 K | 0.00129
543.13 K | 0.00168
548.13 K | 0.00216
553.13 K | 0.00277
558.13 K | 0.00355
563.13 K | 0.00451
568.13 K | 0.00572
573.13 K | 0.00722
578.13 K | 0.00907
583.13 K | 0.0114
588.13 K | 0.0142
593.13 K | 0.0176
598.13 K | 0.0218
603.13 K | 0.0269
608.13 K | 0.0331
613.13 K | 0.0405
618.13 K | 0.0495
623.13 K | 0.0602
628.13 K | 0.0731
633.13 K | 0.0885
638.13 K | 0.107
643.13 K | 0.128
648.13 K | 0.154
653.13 K | 0.184
658.13 K | 0.22
663.13 K | 0.261
668.13 K | 0.31
673.13 K | 0.367
678.13 K | 0.433
683.13 K | 0.51
688.13 K | 0.599
693.13 K | 0.703
698.13 K | 0.822
703.13 K | 0.959
708.13 K | 1.12
713.13 K | 1.3
718.13 K | 1.5
723.13 K | 1.74

CCn1cc[n+](C)c1.COS(=O)(=O)[O-] [1-ethyl-3-methylimidazolium methylsulfate]
Liquid
Conditions | vapor or sublimation pressure [kPa]
408.15 K | 6.75e-09
410.15 K | 8.27e-09
413.15 K | 1.12e-08
416.15 K | 1.5e-08
420.15 K | 2.21e-08
424.15 K | 3.24e-08
428.15 K | 4.7e-08
432.15 K | 6.79e-08
436.15 K | 9.72e-08
440.15 K | 1.38e-07
444.15 K | 1.96e-07
448.15 K | 2.75e-07

c1ccc2cc3ccccc3cc2c1 [anthracene]
Crystal
Conditions | vapor or sublimation pressure [kPa]
284.15 K | 1.79e-07
289.15 K | 3.52e-07
294.15 K | 6.77e-07
299.15 K | 1.27e-06
304.15 K | 2.35e-06
309.15 K | 4.25e-06
314.15 K | 7.54e-06
319.15 K | 1.31e-05
324.15 K | 2.25e-05
329.15 K | 3.79e-05
334.15 K | 6.29e-05
339.15 K | 0.000103
344.15 K | 0.000166
349.15 K | 0.000263
354.15 K | 0.000413
359.15 K | 0.00064
364.15 K | 0.000979
369.15 K | 0.00148
374.15 K | 0.00222
379.15 K | 0.00328
384.15 K | 0.00481
389.15 K | 0.00698
394.15 K | 0.01
399.15 K | 0.0143
404.15 K | 0.0202
409.15 K | 0.0283
414.15 K | 0.0393
419.15 K | 0.0541
424.15 K | 0.0741
429.15 K | 0.101
434.15 K | 0.136
439.15 K | 0.182
444.15 K | 0.242
449.15 K | 0.319
454.15 K | 0.42
459.15 K | 0.548
464.15 K | 0.712
469.15 K | 0.919
474.15 K | 1.18
479.15 K | 1.51
484.15 K | 1.92
489.15 K | 2.42
494.15 K | 3.05
499.15 K | 3.83
504.15 K | 4.77
509.15 K | 5.93

CCCCCCCCCCCC [dodecane]
Liquid
Conditions | vapor or sublimation pressure [kPa]
284.15 K | 0.00421
289.15 K | 0.00646
294.15 K | 0.00978
299.15 K | 0.0146
304.15 K | 0.0215
309.15 K | 0.0312
314.15 K | 0.0449
319.15 K | 0.0638
324.15 K | 0.0897
329.15 K | 0.125
334.15 K | 0.172
339.15 K | 0.234
344.15 K | 0.317
349.15 K | 0.425
354.15 K | 0.565
359.15 K | 0.746
364.15 K | 0.976
369.15 K | 1.27
374.15 K | 1.64
379.15 K | 2.1
384.15 K | 2.67
389.15 K | 3.38
394.15 K | 4.25
399.15 K | 5.32
404.15 K | 6.62
409.15 K | 8.19
414.15 K | 10.1
419.15 K | 12.4
424.15 K | 15.1
429.15 K | 18.3
434.15 K | 22.1
439.15 K | 26.6
444.15 K | 31.8
449.15 K | 38
454.15 K | 45.1
459.15 K | 53.4
464.15 K | 63
469.15 K | 74.1
474.15 K | 86.8
479.15 K | 101
484.15 K | 118
489.15 K | 137
494.15 K | 158
499.15 K | 183
504.15 K | 210
509.15 K | 241

CCCCCCCCCCCCCCCC [hexadecane]
Liquid
Conditions | vapor or sublimation pressure [kPa]
284.15 K | 6.01e-05
289.15 K | 0.000102
294.15 K | 0.000168
299.15 K | 0.000274
304.15 K | 0.00044
309.15 K | 0.000696
314.15 K | 0.00108
319.15 K | 0.00166
324.15 K | 0.00252
329.15 K | 0.00377
334.15 K | 0.00558
339.15 K | 0.00816
344.15 K | 0.0118
349.15 K | 0.0169
354.15 K | 0.0239
359.15 K | 0.0335
364.15 K | 0.0465
369.15 K | 0.0641
374.15 K | 0.0875
379.15 K | 0.119
384.15 K | 0.159
389.15 K | 0.212
394.15 K | 0.281
399.15 K | 0.369
404.15 K | 0.482
409.15 K | 0.626
414.15 K | 0.806
419.15 K | 1.03
424.15 K | 1.32
429.15 K | 1.67
434.15 K | 2.1
439.15 K | 2.63
444.15 K | 3.28
449.15 K | 4.07
454.15 K | 5.02
459.15 K | 6.18
464.15 K | 7.56
469.15 K | 9.21
474.15 K | 11.2
479.15 K | 13.5
484.15 K | 16.3
489.15 K | 19.5
494.15 K | 23.3
499.15 K | 27.7
504.15 K | 32.9
509.15 K | 38.9
